Assay results published in article PMC10058894, “Bioactive C21 Steroidal Glycosides from Euphorbia kansui Promoted HepG2 Cell Apoptosis via the Degradation of ATP1A1 and Inhibited Macrophage Polarization under Co-Cultivation” (Molecules, 2023).

How the values were obtained:
Format in all cases: cell-based
[1] = system: Huh-7 cells; test: MTT assay, cell viability of Huh-7 cells; conditions: Homo sapiens, Huh-7, read-out: Huh-7 IC50
Description: 2. The anti-proliferation of compound 5 on Huh-7 cells
We tested another hepatoma cell line (Huh-7) to validate effect of compound 5. L02 (normal hepatocytes), HepG2 and Hub-7 cells were used to discuss the effect of 5. […]
of 5 on Huh-7 cell was (24.49±[…]) μM (Table S1). The morphology and apoptosis of the cells by reversed microscope and flow cytometry, respectively.
Second, the expression and phosphorylation of ATP1A1 were detected by Western blot analysis in L02, HepG2 and Huh-7 cells. Compared with L02 group, the expression of ATP1A1 was higher in HepG2 and Huh-7 cells, but there was no significant difference in the phosphorylation of ATP1A1 (Figure […]
At last, the effect of 5 on the expression and the phosphorylation of ATP1A1 in Huh-7 cells was […]
the phosphorylation of ATP1A1. The result was consistent with that observed in HepG2 cells (Figure […]
Table S1 Cell viability of Huh-7 cell treated by compound 5

[2] = system: Bax, cleaved caspase 3, cleaved caspase 8, Bcl-2, LC3-B, p62, AKT/mTOR in HepG2 cells; test: Western blot of apoptosis- and autophagy-related proteins in HepG2 cells; conditions: HepG2, 25 μmol∙L−1, 24 h
Protocol: Protein samples were prepared using a RIPA lysis buffer. The concentration of the protein was analyzed using a nucleic acid and protein microanalyzer (Molecular Devices, San Jose, CA, USA). SDS–PAGE was performed to separate the proteins, which were then electrotransferred onto a PVDF membrane. The membrane was incubated with antibodies at 4 °C overnight. Next, the membrane was washed and incubated with an HRP-conjugated secondary antibody (Beyotime, BeiJing, China). Finally, signals were detected by the ECL method (Beyotime, BeiJing, China) and analyzed using ImageJ software.

[3] = system: HepG2 and RAW264.7 co-cultivation; test: Cytokine levels by ELISA in co-cultivation; conditions: 25 μmol∙L−1, 48 h
[4] = system: RAW264.7 cells; test: Phagocytosis of macrophages by flow cytometry; conditions: co-cultivation, vs control group
Protocol: RAW264.7 cells (1.5 × 10^5 cells/well) and HepG2 cells (4 × 10^5 cells/well) were incubated in a Tissue Culture Plate Insert (LABSELECT, Hangzhou, China) at 37 °C and 95% humidity. Raw264.7 cells were incubated in 12-well plates, and HepG2 cells were incubated in Transwell chambers. After 24 h, the cells were treated with the compound for 48 h. Then, the chamber was discarded, and RAW264.7 cells were washed twice with PBS and a fresh medium. Next, 1.5 mL/well and 100 μL/well FluoSpheresTM carboxylate (Invitrogen, Carlsbad, CA, USA) were added to the medium for 2 h in the dark. Cells were washed twice with PBS, harvested, and then resuspended in 0.5 mL PBS. Finally, the cells were measured by a FACSCalibur (Becton Dickinson, Franklin Lakes, NJ, USA). Data were analyzed using FlowJo software.

**Q.** What does the source list for `C[C@H](O)[C@]1(O)CC[C@@]2(O)[C@]1(C)[C@H](OC(=O)/C=C/c1ccccc1)C[C@@H]1[C@@]3(C)CC[C@H](O[C@H]4C[C@H](O)[C@H](O)[C@@H](C)O4)CC3=CC[C@]12O` [Compound 5, Cynsaccatol L]?
**A.** IC50 [1]: 24.5 ± 2.33 µM; Bax, cleaved caspase 3 and cleaved caspase 8 protein expression [2]: increased; Bcl-2 protein expression [2]: decreased; expression of LC3-B and p62 [2]: upregulating; phosphorylation of AKT and mTOR [2]: inhibited; levels of TNF-α and IFN-γ ([3]; vs C0, C1 and C2 groups): significantly upregulate; levels of IL-6 and IL-10 ([3]; vs C0 group): decreased significantly; phagocytic ability of macrophages [4]: significantly upregulated
